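A five-concentration, 48-hour dose response in 96-well plates underlies each endpoint, interpolated linearly between surrounding concentrations. TGI: concentration producing complete growth inhibition.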
How the values were obtained:
Experiment in all cases: NCI anticancer screen, dose series, 48 h
CCRF-CEM leukemia = test system: CCRF-CEM leukemia
HS 578T breast = test system: HS 578T breast
NCI/ADR-RES ovarian = test system: NCI/ADR-RES ovarian
TK-10 renal = test system: TK-10 renal
A549 NSCLC = test system: A549 NSCLC
K-562 leukemia = test system: K-562 leukemia
U251 CNS = test system: U251 CNS
OVCAR-4 ovarian = test system: OVCAR-4 ovarian
ACHN renal = test system: ACHN renal
LOX IMVI melanoma = test system: LOX IMVI melanoma
MDA-MB-231 breast = test system: MDA-MB-231 breast
UACC-257 melanoma = test system: UACC-257 melanoma
A498 renal = test system: A498 renal
HOP-92 NSCLC = test system: HOP-92 NSCLC
SF-295 CNS = test system: SF-295 CNS
NCI-H522 lung = test system: NCI-H522 lung
SK-MEL-5 melanoma = test system: SK-MEL-5 melanoma
SNB-19 CNS = test system: SNB-19 CNS
DU-145 prostate = test system: DU-145 prostate
RXF 393 renal = test system: RXF 393 renal

| SMILES | TGI (CCRF-CEM leukemia) [µM] | TGI (HS 578T breast) [µM] | TGI (NCI/ADR-RES ovarian) [µM] | TGI (TK-10 renal) [µM] | TGI (A549 NSCLC) [µM] | TGI (K-562 leukemia) [µM] | TGI (U251 CNS) [µM] | TGI (OVCAR-4 ovarian) [µM] | TGI (ACHN renal) [µM] | TGI (LOX IMVI melanoma) [µM] | TGI (MDA-MB-231 breast) [µM] | TGI (UACC-257 melanoma) [µM] | TGI (A498 renal) [µM] | TGI (HOP-92 NSCLC) [µM] | TGI (SF-295 CNS) [µM] | TGI (NCI-H522 lung) [µM] | TGI (SK-MEL-5 melanoma) [µM] | TGI (SNB-19 CNS) [µM] | TGI (DU-145 prostate) [µM] | TGI (RXF 393 renal) [µM] |
| --- | --- | --- | --- | --- | --- | --- | --- | --- | --- | --- | --- | --- | --- | --- | --- | --- | --- | --- | --- | --- |
| COc1ccc2[nH]cc(C(=O)C(=O)NC34CC5CC(CC(C5)C3)C4)c2c1 | 29.9 | > 91.1 | > 100 | > 100 | > 100 | 37.6 | > 85.3 | > 100 | > 100 | > 100 | 97.9 | > 100 | > 76.1 | > 100 | > 54.6 | > 100 | > 100 | > 100 | > 100 | 16.8 |
| C=C(C)[C@@]1(O)CCCC[C@@H]1CC(Sc1ccccc1)Sc1ccccc1 | > 100 | 35.1 | 34 | 30 | 34.4 | 44.4 | 53.9 | 29.1 | > 100 | 31.2 | 38.7 | 48.7 | 68.4 | 18.9 | 32.8 | 26.5 | 29.5 | 38.3 | 30.1 | 29.2 |
| O=[N+]([O-])c1ccc(Oc2c(Cl)cc(S(=O)(=O)/N=C(\NO)Nc3ccc(Cl)cc3)cc2Cl)c(Cl)c1 | 98.4 | 36 | 51.4 | 29.7 | 32.1 | 35 | 30.8 | 25.9 | 28.2 | 37.8 | 36.7 | 30.8 | 25.9 | 31.2 | 31.1 | 26.4 | 31.3 | 30.6 | 26.8 | 26.5 |
| NC(=O)c1ncn(C2OC(CO)C(O)C2O)c1NC=O (centres undefined) | > 100 | > 100 | > 100 | > 100 | > 100 | > 100 | > 100 | > 100 | > 100 | > 100 | > 100 | > 100 | > 100 | > 100 | > 100 | > 100 | > 100 | > 100 | > 100 | > 100 |
| COC(=O)c1ccccc1CC(Cc1ccc2c(c1)CCC2)C(=O)OC (centres undefined) | > 100 | > 100 | > 100 | > 100 | > 100 | > 100 | > 100 | > 100 | > 100 | > 100 | > 100 | > 100 | > 100 | > 100 | > 100 | > 100 | 84.1 | > 100 | > 100 | > 100 |
| COC(=O)C1=C(OC(=O)/C(=C/c2ccccc2)c2ccc(Cl)cc2)C(C(=O)OC)[C@@]2(O)[C@@H](C(=O)OC)[C@H](C)C[C@@H]1[C@@H]2C(=O)OC (some centres undefined) | > 100 | > 100 | > 100 | > 100 | > 100 | > 100 | > 100 | > 100 | > 100 | > 100 | > 100 | > 100 | > 100 | > 100 | > 100 | > 100 | > 100 | > 100 | > 100 | > 100 |
| OC[P+](CO)(CO)C12CC3CC(CC(C3)C1)C2 | 62.2 | > 100 | > 100 | > 100 | > 100 | > 100 | > 100 | > 100 | > 100 | > 29.8 | > 100 | > 100 | > 100 | > 100 | > 100 | > 100 | > 100 | > 100 | > 100 | > 100 |
| CCOC(=O)C1(C(=O)OCC)C[C@@H](C)[C@@H](O)C1 | > 100 | > 100 | > 100 | > 100 | > 100 | > 100 | > 100 | > 100 | > 100 | > 100 | > 100 | > 100 | > 100 | > 100 | > 100 | > 100 | > 100 | > 100 | > 100 | > 100 |
| Cc1cc(C)c(O)c(CN2CCN(C(C)C)CCN(C(C)C)CC2)c1 | 83.9 | > 100 | > 100 | > 100 | > 100 | > 100 | > 100 | > 100 | > 100 | 42.6 | > 100 | 35.5 | > 100 | 65.2 | 85.3 | 68 |  | > 100 | > 100 | 45 |
| NC(=O)c1cccc(N=c2oc3ccc(Br)cc3cc2-c2nc3ccccc3[nH]2)c1 | 17.3 | 74.5 | 35.9 | 30.7 | 26.4 | 96.1 | 31 | 47.5 | 32.2 | 37.5 | 25 | 43.4 | 35.8 | 36.4 | 30.8 | 77.4 | 11.3 | 28.5 | 28.9 | 43.5 |

Source: PubChem BioAssay (NCI)
